The results in this text go back to US12161642B2, “Ferrochelatase inhibitors and methods of use” (INDIANA UNIVERSITY RESEARCH AND TECHNOLOGY CORPORATION, priority 2018, dated 2024).

Usually IC50 stands for the midpoint of a concentration-inhibition curve. A word on the GI50: it is the concentration that inhibits growth by half. Higher therefore signals lower sensitivity of the cells.

Like-named read-outs stand apart in the source and are kept apart here. A value given as a limit tells only on which side of the number the result lay.

The target of one assay is recombinant human FECH (Homo sapiens (Human), UniProt P22830). As to the kind of experiment: FECH enzymatic activity assay (Ni2+ mesoporphyrin IX formation, absorbance at 550 nm). Format: biochemical. As for the experimental part: The human FECH expression plasmid pHDTF20 was obtained in E. coli cells from the Dailey Lab (University of Georgia). The cells were grown in Circlegrow medium (MP Biomedicals, LLC #3000-122) with ampicillin for 20 hours. Cells were harvested, lysed in a Tris-MOPS buffer and purified by immobilized metal affinity chromatography using HisPur Cobalt resin (Thermo Fisher #89965).
Sequence of recombinant human FECH (P22830 55-423): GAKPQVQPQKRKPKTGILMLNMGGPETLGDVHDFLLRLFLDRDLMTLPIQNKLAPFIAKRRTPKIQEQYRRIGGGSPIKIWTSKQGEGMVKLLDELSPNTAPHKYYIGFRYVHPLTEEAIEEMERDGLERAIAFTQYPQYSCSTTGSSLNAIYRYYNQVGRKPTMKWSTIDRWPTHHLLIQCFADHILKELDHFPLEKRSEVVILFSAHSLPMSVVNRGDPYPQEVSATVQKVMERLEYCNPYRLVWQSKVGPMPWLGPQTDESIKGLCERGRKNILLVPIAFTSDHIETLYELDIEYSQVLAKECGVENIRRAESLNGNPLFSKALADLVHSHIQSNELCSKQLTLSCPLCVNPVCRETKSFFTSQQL
The activity assay buffer was 100 mM Tris-HCl pH 8.0 with 0.05% octyl glucoside detergent. Assay reagents included 100 μM NiCl (Sigma #339350), 0.75 μM FECH enzyme and 100 μM mesoporphyrin (Sigma #258806) prepared in ammonium hydroxide (Santa Cruz #sc-214535).
The kinetic assay was optimized for a 384-well format. For the 384-well assay, each well contained a 50 μL reaction with 40 μL buffer, 5 μL mesoporphyrin solution, 5 μL NiCl and FECH solution. […] This time point was used for the chemical screen.
A mixture of assay buffer, NiCl and FECH enzyme (15 μL) was added to all wells on the assay plate using a MulitFlo dispenser. To start the reaction, 15 μL of a 333 μM mesoporphyrin solution in assay buffer was added to the plate, the plate spun down and the absorbance at OD=550 nm immediately read to establish a read at time 0. Plates were read for absorbance at OD=550 nm again at t=20 minutes and the activity was expressed as the change in the absorbance over the 20 minute reaction.
Compounds, reordered from ChemDiv or synthesized as described above, were made to 10 mM in DMSO and tested in the FECH enzymatic assay at final concentrations of […] 100 μM (1% final DMSO concentration). IC50 values for the compounds were determined using GraphPad Prism software.
A kinetic assay to monitor FECH enzymatic activity was adapted from a published protocol (Burden et a., Biochim Biophys Acta 1435, 191-197 (1999)).

Assay [1] has as its system HRECs. As to the kind of experiment: HREC proliferation assay (alamarBlue), GI50 determination. Conditions: Homo sapiens, HREC, 44 h, proliferation of HRECs. Format: cell-based, human. As for the experimental part: Human retinal microvascular endothelial cells (HRECs) were cultured in EGM-2 medium (Lonza). Cells (2500/well) in EGM-2 medium were plated in 48 wells in the center of a 96-well black with clear bottom TC treated plate are allowed to attach overnight. The cells were treated with compounds such that final assay concentrations were 100 μM, 30 μM, 10 μM, 3 μM, 1 μM, 100 nM, and 10 nM with DMSO control (1% final DMSO concentration). Cells were allowed to proliferate for 44 hours prior to addition of alamarBlue. The alamarBlue reagent is a flurorometric/colorimetric redox reagent that is reduced in the presence of growing cells. The assay was completed with a read of fluorescence at excitation of 560 nm and emission of 590 nm. GI50 values were determined using GraphPad Prism software.
A general note: The colour change of resazurin is a common sign of viable cells or microbes.

The subject of assay [2] is HRECs. As to the kind of experiment: Matrigel-based tube formation assay. Format: cell-based, human. Conditions: 8 hours, total tubule length vs. DMSO control. The procedure: The Matrigel-based tube formation assay was performed. Briefly, 50 μL Matrigel was allowed to solidify in a 96-well black, clear bottom plate at 37° C. for 20 minutes. HRECs were added to the solid Matrigel at 15,000 cells/well in 100 μL EGM-2 and dosed with appropriate concentrations of compound in DMSO, 1 μL/well. Tube formation was observed every 2 hours by brightfield microscopy and images were taken after 8 hours of tube formation. Six images per treatment were analyzed using the AngiogenesisAnalyzer plugin for ImageJ and HREC total tubule length for treated cells was normalized to DMSO controls. Statistical analysis was completed using GraphPad Prism, with ANOVA followed by Dunnett's post hoc tests used to compare treatments to control (DMSO).

A further assay has as its system FECH in HRECs. As to the kind of experiment: PPIX accumulation assay in HRECs. Format: cell-based, human. The following applies: after 5-ALA treatment; vs. DMSO control. The procedure: To confirm that ferrochelatase is inhibited in HRECs after treatment with compounds, the buildup of FECH's substrate PPIX was assayed fluorometrically. HRECs were plated for 80% confluency at the time of treatment in 6 cm dishes coated with attachment factor. Cells were then treated with compound in DMSO (1% DMSO final concentration) for 2 hours at 37° C. 5-Aminolevulinic acid, the first dedicated precursor in the heme synthesis pathway, was then added to the cells at 1 mM and allowed to incubate at 37° C. for another 2 hours. Cells were washed with PBS and flash frozen. Cells were lysed in 200 μL RIPA buffer and cleared by centrifugation at 14,000 g for 15 minutes at 4° C. The cleared lysates (20 μL) were added to wells of a 384 well plate in triplicate. An equal volume of 2M HC104 prepared in methanol was added to each well and PPIX was detected by immediately reading fluorescence on a Biotek Synergy H1 plate reader at 406 nm excitation and 610 nm emission. Total PPIX accumulation was determined by comparing fluorescence output with PPIX standards, prepared in DMSO and diluted in RIPA buffer and 2M HC104 (1:1 ratio) and read on the same plate. Protein in the cleared lysates was quantified with a standard Bradford assay and the amount of PPIX accumulation is expressed per mg protein.

The mark [3] stands for this setting: recombinant FECH, read-out: FECH IC50.

In the case of `CCCc1cc(=O)n2nc(CNc3ccc(C(C)(C)C)cc3)nc2[nH]1` [Example 5h, 2-(((4-(tert-butyl)phenyl)amino)methyl)-5-propyl-[1,2,4]triazolo[1,5-a]pyrimidin-7(4H)-one], on recombinant human FECH (setting [3]), the IC50 was greater than 100 µM. In the assay on HRECs [1], the GI50 came out at 3.8 µM. In the assay with HRECs [2], the “tube formation of HRECs” value is on record as “blocked tube formation”.

Consider `CCCc1cc(=O)n2nc(CNc3ccc(C)cc3)nc2[nH]1` [Example 5c, 5-propyl-2-((p-tolylamino)methyl)-[1,2,4]triazolo[1,5-a]pyrimidin-7(4H)-one], for which the IC50 on recombinant human FECH (setting [3]) came to 0.293 µM. In the assay with HRECs [1], this molecule registered a GI50 of 28.3 µM. For the same molecule, the “tube formation of HRECs” value in the assay with HRECs [2] was “blocked tube formation”.

In the case of `CCCc1cc(=O)n2nc(CNc3ccccc3C)nc2[nH]1` [Example 5a, 5-propyl-2-((o-tolylamino)methyl)-[1,2,4]triazolo[1,5-a]pyrimidin-7(4H)-one], the half-maximal inhibitory concentration (IC50) on recombinant human FECH (setting [3]) came out at 92 µM. The GI50 with HRECs [1] came out at 75.5 µM. In the assay with HRECs [2], the “tube formation of HRECs” value is recorded as “blocked tube formation”.

In the case of `CC(C)(C)c1ccc(-c2nc3[nH]c(CNc4ccc5ccccc5n4)cc(=O)n3n2)cc1` [Example 4e, 2-(4-(tert-butyl)phenyl)-5-((quinolin-2-ylamino)methyl)-[1,2,4]triazolo[1,5-a]pyrimidin-7(4H)-one], on recombinant human FECH (setting [3]), the half-maximal inhibitory concentration (IC50) worked out at 0.178 µM. This molecule registered a concentration for 50% growth inhibition (GI50) in the assay with HRECs [1] of 92.5 µM. Further, the “tube formation of HRECs” value in the assay on HRECs [2] is on record as “blocked tube formation”. Besides, in the assay on FECH in HRECs, the “buildup of PPIX in HRECs” value is listed as “induced a buildup of PPIX”.

On to “N-methylprotoporphyrin [NMPP, reference compound]”, for which, at recombinant human FECH (10 μM), the FECH activity inhibition result was “completely inhibited”. In addition, on recombinant human FECH (positive control, in our assay, read-out: IC50 (FECH inhibition)), the concentration for half-maximal inhibition (IC50) was 0.45 µM. Also, the “buildup of PPIX in HRECs” value in the assay with FECH in HRECs was “induced a buildup of PPIX”.
